Results as given in patent US20170246130A1, “4-HYDROXYBENZOHYDARZIDE-A NEW CLASS OF ANGIOGENIC ENZYME THYMIDINE PHOSPHORYLASE INHIBITORS” (priority 2016, published 2017).
“Also recorded” adds a separate entry of the source.

How the values were obtained:
[1] = target: T1, thymidine phosphorylase (E. coli) (Escherichia coli, UniProt P07650); experiment: In-vitro thymidine phosphorylase inhibition assay (spectrophotometric); assay type: biochemical; conditions: recombinant E. coli TP, thymidine substrate, pH 7.0, 30° C., 290 nm; read-out: IC50 (μM ± S.E.M.), thymidine phosphorylase inhibition
T1 construct: purchased Sigma Aldrich, USA; host or cells: Escherichia coli
T1 sequence (P07650 whole entry): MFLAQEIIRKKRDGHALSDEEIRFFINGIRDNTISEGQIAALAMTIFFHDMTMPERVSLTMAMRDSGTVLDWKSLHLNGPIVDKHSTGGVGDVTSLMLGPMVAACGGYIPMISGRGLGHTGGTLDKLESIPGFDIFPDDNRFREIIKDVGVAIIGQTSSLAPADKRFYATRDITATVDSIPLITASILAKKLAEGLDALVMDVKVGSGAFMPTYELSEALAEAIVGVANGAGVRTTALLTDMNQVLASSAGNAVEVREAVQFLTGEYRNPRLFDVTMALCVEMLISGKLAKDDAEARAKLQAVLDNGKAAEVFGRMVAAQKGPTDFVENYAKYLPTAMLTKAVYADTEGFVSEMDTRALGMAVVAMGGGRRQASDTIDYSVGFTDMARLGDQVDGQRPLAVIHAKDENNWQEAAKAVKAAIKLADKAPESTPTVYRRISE
Description: In vitro studies on thymidine phosphorylase were carried out in 96-well microtiter plate using Spectra Max-340 and Spectra Max-384 spectrophotometers (Molecular Devices, CA, USA). Deionized water used for buffer preparation was collected by Simplicity Water Purification System (Milipore).
Since human TP is not commercially available, we used commercially available recombinant E. coli TP (expressed in Escherichia coli) enzyme. Primary sequence of TP is mostly conserved throughout the evolution as mammalian TP share 39% sequence similarity with TP of E. coli. The mammalian enzyme also shared 65-70% similarity with the active site residues of E. coli TP enzyme (Bronckaers et al., 2009). Assay for thymidine phosphorylase inhibition was performed spectrophotometrically, following method of Bera et al. with some modifications (Bera et al., 2013).
The reaction catalyzed by thymidine phosphorylase involves reversible phosphorolysis of thymidine (FIG. 1), to thymine and 2-deoxyribose-1-phosphate (Bronckaers et al., 2009).
Reaction mixture contained 150 μL of potassium phosphate buffer (pH 7.0, 50 mM), 20 µL of enzyme (0.058 U/well) and 10 μL of test compound (0.5 mM in dimethylsulfoxide). The reaction mixture was incubated for 10 min at 30° C.
The enzyme inhibitory activities were calculated using the following formula:
Percent Inhibition=100−(O.D. of test/O.D. of control)×100
Where test is the enzyme activity with sample, and control is the enzyme activity without sample, and O.D. is optical density.
The IC50 of the compounds was calculated using EZ-Fit Enzyme Kinetic Program (Perrella Scientific Inc., Amhrest, U.S.A.).

[2] = target: T1, thymidine phosphorylase (E. coli); experiment: Kinetic (mechanistic) studies on thymidine phosphorylase; assay type: biochemical; conditions: for Inhibition Type: Lineweaver-Burk plot; for Inhibition Type / Ki: thymidine as variable substrate; for Ki: secondary re-plot, confirmed by Dixon plot, read-out: Ki (μM ± S.E.M.), dissociation constant; for apparent Vmax (Lineweaver-burk plot) / apparent km of the enzyme (Lineweaver-burk plot): absence and different concentrations of compound
Description: These studies disclose the mechanism of inhibitor binding to enzyme. Kinetic studies were carried out using thymidine as variable substrate. […] This was deduced from Lineweaver Burk plot. This compound therefore, interacted either with the amino acids of hydrophobic pocket of the enzyme or at allosteric site of the enzyme. […] Uncompetitive inhibitor causes decrease in both Km and Vmax values of the enzyme (Figure-6). […] Ki values were determined by secondary re-plot, and confirmed by Dixon plot.
Kinetic studies were carried out to find the mechanism of inhibitor action. Inhibitor could bind with enzyme in multiple ways such as in competitive, non-competitive, mixed or uncompetitive way. In kinetic assay, the enzyme (0.058 U/200 μL) was incubated with different concentrations of inhibitor for 10 min at 30° C. The reactions was then initiated by adding different concentrations (0.1875 mM-1.5 mM) of substrate (thymidine) and the resulting degradation of thymidine was measured continuously at 290 nm for 10 min on a ELISA plate reader. Every experiment was run in triplicate.
Line-weaver Burk plot was plotted to determine the type of inhibition. This was accomplished by plotting the reciprocal of the rate of reaction against the reciprocal of the substrate concentration. Ki values were determined by secondary re-plot, and reconfirmed by Dixon plot. The Ki was determined by non-linear regression equation.

[3] = tested on: mouse fibroblast cell line (3T3); experiment: MTT anti-proliferative assay, 3T3 cells; assay type: cell-based; conditions: for IC50 ± SD (μM), 3T3 Cell Line: 48 h, 3T3 cells; for inhibition of the proliferation of 3T3 cells (in words): in comparison to cyclohexamide
Description: (§1) Compounds found to be active in inhibiting thymidine phosphorylase were then subjected to MTT proliferation assay. Rapid proliferation is the property inherent to cancerous/tumor cells. This assay was carried out to study the effect of these compounds on proliferation of various cell lines. The cell lines which we targeted were mouse fibroblast cell line (3T3), and prostate cancer line (PC3).
(§2) Anti-proliferative activity of active compounds was evaluated by using the standard MTT (3-[4,5-dimethylthiazole-2-yl]-2,5-diphenyl-tetrazolium bromide) colorimetric assay in 96-well plate (Dimas et al., 1998).
(§3) It is a colorimetric assay that measures the reduction of MTT, by mitochondrial enzyme i.e. succinate dehydrogenase. The MTT enters into the mitochondria of cell, where it is reduced to an insoluble formazan salt (FIG. 8). The extent of MTT reduction was measured at 540 nm. As reduction of MTT can only occur in metabolically active cells, the level of activity is actually a measure of the viability of the cells (Vega-Avila and Pugsley, 2011).
(§4) Mouse fibroblast cell line 3T3 was cultured in DMEM, supplemented with 5% of FBS, 100 IU/mL of penicillin and 100 μg/mL of streptomycin, and kept at 37° C. in 5% CO2 incubator. For the preparation of cell culture, 100 μL/well of cell solution (5×10^4 cells/mL) was added into 96-well plate. The plate was incubated for overnight, and fresh medium was added after the removal of old medium. The test compounds were also added in different concentrations into the plate and plate was again incubated for 48 h. After the completion of this incubation period, 200 μL MTT (0.5 mg/mL) was added and plate was again incubated for 4 h, after this final incubation 100 μL of DMSO was added to each well. The level of MTT reduction to formazan was evaluated by change in absorbance at 540 nm using a micro plate reader (Spectra Max plus, Molecular Devices, CA, USA).

[4] = tested on: prostate cancer line (PC3); experiment: MTT anti-proliferative assay, PC3 cells; assay type: cell-based; conditions: for IC50 ± SD (μM), PC3 Cell Line: PC3 cells
Description: as §1, §2, §3, §4

Row | Compound | IC50 [1] [µM] | Inhibition Type [2] | Ki [2] [µM] | IC50 ± SD (μM), 3T3 Cell Line [3] | IC50 ± SD (μM), PC3 Cell Line [4] | apparent Vmax (Lineweaver-burk plot) [2] | apparent km of the enzyme (Lineweaver-burk plot) [2] | inhibition of the proliferation of 3T3 cells (in words) [3] | IC50 ([4]; Homo sapiens, PC-3, PC3 cells, read-out: IC50 ± SD (μM), PC3 Cell Line) [µM] | inhibition of the proliferation of PC3 cancer cells (in words) ([4]; in comparison of doxorubucin)
1 | O=C(N/N=C/c1ccc(Cl)cc1)c1ccc(O)cc1 [Compound 12, 4-Hydroxy-N′-[(E)-(4-chlorophenyl)methylidene]benzohydrazide] | 159 ± 0.4 | un-competitive; also recorded: Uncompetitive | 138 ± 0.009 | Inactive | Inactive | – | – | – | – | –
2 | C/C(=N\NC(=O)c1ccc(O)cc1)c1c(O)cccc1O [Compound 27, 4-Hydroxy-N′-[(E)-1-(2,6-dihydroxyphenyl)ethylidene]benzohydrazide] | 176.9 ± 1.6 | un-competitive; also recorded: Uncompetitive | 168 ± 0.003 | – | Inactive | decreased | remains unaffected | significantly inhibit | – | –
3 | O=C(N/N=C/c1ccc(Br)cc1)c1ccc(O)cc1 [Compound 14, 4-Hydroxy-N′-[(E)-(4-bromophenyl)methylidene]benzohydrazide] | 158 ± 1 | un-competitive; also recorded: Uncompetitive | 80.5 ± 0.002 | Inactive | Inactive | – | – | – | – | –
4 | O=C(N/N=C/c1ccc(O)c(O)c1)c1ccc(O)cc1 [Compound 5, 4-Hydroxy-N′-[(E)-(3,4-dihydroxyphenyl)methylidene]benzohydrazide] | 229.5 ± 0.4 | un-competitive; also recorded: Uncompetitive | 176.65 ± 0.006 | – | Inactive | – | – | significantly inhibit | – | –
5 | CC/C(=N\NC(=O)c1ccc(O)cc1)c1cc(O)ccc1O [Compound 30, 4-Hydroxy-N′-[(E)-1-(2,5-dihydroxyphenyl)propylidene]benzohydrazide] | 173 ± 1.4 | un-competitive; also recorded: Uncompetitive | 159.05 ± 0.002 | – | Inactive | – | – | significantly inhibit | – | –
6 | Oc1nc(O)c2cc[nH]c2n1 [7-Deazaxanthine, 2,4-Dihydroxypyrrolo[2,3-d]pyrimidine, reference compound] | – | Non-Competitive | – | – | – | – | – | – | – | –
7 | O=C(N/N=C/c1cc(Br)cc(Br)c1O)c1ccc(O)cc1 [Compound 24, 4-Hydroxy-N′-[(E)-(3,5-dibromo-2-hydroxyphenyl)methylidene]benzohydrazide] | 6.8 ± 0.7 | Non-Competitive | 1.75 ± 0.009 | – | – | decreased | remains unaffected | significantly inhibit | 8.34 ± 0.965 | significantly inhibit
